# Assay results as given in US20200325156A1, “HETEROARYL AMIDE COMPOUNDS, PREPARATION METHOD THEREFOR, PHARMACEUTICAL COMPOSITIONS THEREOF, AND APPLICATIONS THEREOF” (Rui Jin Hospital Affiliated to Shanghai Jiao Tong …, priority 2017, published 2020).
# Experiments:
# Assay type in all cases: cell-based
# [1] = test system: Human promyelocytic leukemia cells HL-60; experiment: MTS cell growth inhibition, HL-60; conditions: for inhibition at 10 µM / IC50: Homo sapiens, HL-60, 48 h, MTS; for inhibition at 10 µM: compound concentration 10 μM, read-out: Inhibition rate against HL-60 at 10 μM (%); for IC50: growth inhibition; for growth inhibitory activity on HL-60 (in words): summary of Tables 3 and 4
# Protocol: (§1) 1) Medium: DMEM (Dulbecco's modified eagle medium) or RPMI1640 (containing 10% fetal bovine serum, 100 μg/mL ampicillin, 100 μg/mL streptomycin).
# (§2) 2) Reagent: MTS reaction solution (containing 2 mg/mL of MTS (3-(4,5-dimethylthiazol-2-yl)-5-(3-carboxymethoxyphenyl)-2-(4-sulfophenyl)-2H-tetrazolium, inner salt); 100 μg/mL PES ([…])).
# (§3) Human promyelocytic leukemia cells HL-60 (2×10^4 cells/well) cultured in vitro were incubated into a 96-well culture plate, the volume of cell-culture medium was 90 μL, and then 10 μL of the compound at each gradient concentration was added (the highest concentration was 10 μM, which was diluted stepwise by ⅓, and 8 concentration points were set in total; the system contained 0.1% DMSO (dimethyl sulfoxide)). The cell plate with uniformly mixed compound was cultured in a cell culture incubator (37° C.; 5% CO2) for 48 h, then 20 μμL of MTS reaction solution was added, uniformly mixed and incubated in the cell culture incubator (37° C.; 5% CO2) for 1-4 hr; OD values at 490 nm were measured by a microplate reader (VARIOSKAN FLASH, Thermo). Three parallels were set in each group of experiments, with 0.1% (a final concentration) DMSO as a negative control, and a medium without cells and compounds as a blank control. The cell growth inhibition rate was calculated by the following formula:
# (§4) Cell growth inhibition rate%=1−(ODexperimental group−ODblank group)/(ODnegative group−ODblank group)×100%
# (§5) 4) IC50 calculation: The semi-inhibitory concentration of the compound acting on cell was calculated using GradPad Prism 5 software according to the measured cell growth inhibition rate.
# [2] = test system: Human lung cancer cells A549; experiment: MTS cell growth inhibition, A549; conditions: compound concentration 10 μM, 48 h, MTS, read-out: Inhibition rate against A549 at 10 μM (%)
# Protocol: as §1, §2, §3, §4, §5
# (§6) Human lung cancer cells A549, human gastric cancer cells BGC-823, human liver cancer cells HepG-2 and human breast cancer cells MCF-7, human osteosarcoma cells U2OS, human prostate cancer cells LNCAP cultured in vitro were added in a 96-well culture plate at 1,000-10,000 cells/well, incubated until adherence, and then the compound was added. As to other procedures, please refer to the method (1) above.
# [3] = test system: human breast cancer cells MCF-7; experiment: MTS cell growth inhibition, MCF-7; conditions: MCF7, compound concentration 10 μM, 48 h, read-out: Inhibition rate against MCF-7 at 10 μM (%)
# Protocol: as §1, §2, §3, §4, §5, §6
# [4] = test system: human liver cancer cells HepG-2; experiment: MTS cell growth inhibition, HepG-2; conditions: 48 h; for inhibition at 10 µM: HepG2, compound concentration 10 μM, read-out: Inhibition rate against HepG-2 at 10 μM (%); for IC50: HepG2, growth inhibition
# Protocol: as §1, §2, §3, §4, §5, §6
# [5] = test system: human prostate cancer cells LNCAP; experiment: MTS cell growth inhibition, LNCAP; conditions: for inhibition at 10 µM / IC50: Homo sapiens, LNCaP, 48 h, MTS; for inhibition at 10 µM: compound concentration 10 μM, read-out: Inhibition rate against LNCAP at 10 μM (%); for IC50: growth inhibition; for growth inhibitory activity on LNCAP (in words): summary of Tables 3 and 4
# Protocol: as §1, §2, §3, §4, §5, §6
# [6] = test system: human osteosarcoma cells U2OS; experiment: MTS cell growth inhibition, U2OS; conditions: for inhibition at 10 µM / IC50: Homo sapiens, U2OS, 48 h, MTS; for inhibition at 10 µM: compound concentration 10 μM, read-out: Inhibition rate against U2OS at 10 μM (%); for IC50: growth inhibition; for growth inhibitory activity on U2OS (in words): summary of Tables 3 and 4
# Protocol: as §1, §2, §3, §4, §5, §6
# [7] = test system: human gastric cancer cells BGC-823; experiment: MTS cell growth inhibition, BGC-823; conditions: 48 h; for inhibition at 10 µM: compound concentration 10 μM, read-out: Inhibition rate against BGC-823 at 10 μM (%); for IC50: growth inhibition
# Protocol: as §1, §2, §3, §4, §5, §6
smiles,measurement,setting,value
O=C(Nc1ccc(OC(F)(F)F)cc1)c1cc2scnc2[nH]1 [Compound I-6],inhibition at 10 µM,[1],69.1%
same,IC50,[1],217 nM
same,inhibition at 10 µM,[2],6.3%
same,inhibition at 10 µM,[3],3.4%
same,inhibition at 10 µM,[4],66.5%
same,IC50,[4],1980 nM
same,inhibition at 10 µM,[5],55.8%
same,IC50,[5],319 nM
same,inhibition at 10 µM,[6],56.2%
same,IC50,[6],929 nM
same,inhibition at 10 µM,[7],64.5%
same,IC50,[7],582 nM
COC(=O)c1ccc(NC(=O)c2cc3scnc3[nH]2)cc1 [Compound I-8],inhibition at 10 µM,[1],69.4%
same,IC50,[1],1780 nM
same,inhibition at 10 µM,[2],56.8%
same,inhibition at 10 µM,[3],21.2%
same,inhibition at 10 µM,[4],58.1%
same,IC50,[5],6040 nM
same,inhibition at 10 µM,[6],50.9%
same,IC50,[6],6350 nM
same,inhibition at 10 µM,[7],72.2%
O=C(Nc1ccc(C(F)(F)F)cc1)c1cc2scnc2[nH]1 [Compound I-11],inhibition at 10 µM,[1],71.2%
same,IC50,[1],653 nM
same,inhibition at 10 µM,[2],7.6%
same,inhibition at 10 µM,[3],7.4%
same,inhibition at 10 µM,[4],62.9%
same,IC50,[4],1470 nM
same,inhibition at 10 µM,[5],56.1%
same,IC50,[5],5260 nM
same,inhibition at 10 µM,[6],56.2%
same,IC50,[6],1510 nM
same,inhibition at 10 µM,[7],58.8%
same,IC50,[7],849 nM
COc1ccc(NC(=O)c2cc3scnc3[nH]2)cc1 [Compound I-12],inhibition at 10 µM,[1],68.9%
same,IC50,[1],590 nM
same,inhibition at 10 µM,[2],9.3%
same,inhibition at 10 µM,[3],5.9%
same,inhibition at 10 µM,[4],58.3%
same,IC50,[4],223 nM
same,inhibition at 10 µM,[5],54.6%
same,IC50,[5],6310 nM
same,inhibition at 10 µM,[6],57.7%
same,IC50,[6],1520 nM
same,inhibition at 10 µM,[7],47.4%
same,IC50,[7],952 nM
CN(C)c1ccc(NC(=O)c2cc3scnc3[nH]2)cc1 [Compound I-13],inhibition at 10 µM,[1],69.7%
same,IC50,[1],1300 nM
same,inhibition at 10 µM,[2],3.4%
same,inhibition at 10 µM,[3],< 0%
same,inhibition at 10 µM,[4],54.7%
same,IC50,[4],1930 nM
same,inhibition at 10 µM,[5],48.6%
same,IC50,[5],> 10000 nM
same,inhibition at 10 µM,[6],53.2%
same,IC50,[6],2680 nM
same,inhibition at 10 µM,[7],54.3%
same,IC50,[7],1110 nM
CCN(CC)c1ccc(NC(=O)c2cc3scnc3[nH]2)cc1 [Compound I-15],inhibition at 10 µM,[1],63.2%
same,IC50,[1],2710 nM
same,inhibition at 10 µM,[2],69.4%
same,inhibition at 10 µM,[3],23.8%
same,inhibition at 10 µM,[4],57.8%
same,IC50,[5],> 10000 nM
same,inhibition at 10 µM,[6],53.5%
same,IC50,[6],> 10000 nM
same,inhibition at 10 µM,[7],71.7%
O=C(Nc1ccc([N+](=O)[O-])cc1)c1cc2scnc2[nH]1 [Compound I-16],inhibition at 10 µM,[1],44.6%
same,inhibition at 10 µM,[2],32.4%
same,inhibition at 10 µM,[3],17.6%
same,inhibition at 10 µM,[4],38.6%
same,inhibition at 10 µM,[5],58%
same,inhibition at 10 µM,[6],40.2%
same,inhibition at 10 µM,[7],63.3%
O=C(NCc1ccccc1-c1ccncc1)c1cc2scnc2[nH]1 [Compound I-22],inhibition at 10 µM,[1],65.2%
same,IC50,[1],672 nM
same,inhibition at 10 µM,[2],54.8%
same,inhibition at 10 µM,[3],15.1%
same,inhibition at 10 µM,[4],48.9%
same,inhibition at 10 µM,[5],64.3%
same,IC50,[5],2570 nM
same,inhibition at 10 µM,[6],50%
same,IC50,[6],3660 nM
same,inhibition at 10 µM,[7],64.6%
O=C(NCc1ccccc1-c1cccnc1)c1cc2scnc2[nH]1 [Compound I-23],inhibition at 10 µM,[1],70.5%
same,IC50,[1],475 nM
same,inhibition at 10 µM,[2],53.4%
same,inhibition at 10 µM,[3],27%
same,inhibition at 10 µM,[4],60.4%
same,inhibition at 10 µM,[5],64.4%
same,IC50,[5],1580 nM
same,inhibition at 10 µM,[6],56%
same,IC50,[6],2920 nM
same,inhibition at 10 µM,[7],71.1%
O=C(NCc1ccccc1-c1ccsc1)c1cc2scnc2[nH]1 [Compound I-24],inhibition at 10 µM,[1],64.3%
same,IC50,[1],2300 nM
same,inhibition at 10 µM,[2],20.1%
same,inhibition at 10 µM,[3],31.5%
same,inhibition at 10 µM,[4],38.2%
same,inhibition at 10 µM,[5],48.7%
same,IC50,[5],849 nM
same,inhibition at 10 µM,[6],37.6%
same,IC50,[6],2750 nM
same,inhibition at 10 µM,[7],51.2%
O=C(NCc1ccccc1-c1ccco1)c1cc2scnc2[nH]1 [Compound I-26],inhibition at 10 µM,[1],64.8%
same,IC50,[1],3210 nM
same,inhibition at 10 µM,[2],< 0%
same,inhibition at 10 µM,[3],3.1%
same,inhibition at 10 µM,[4],29.7%
same,inhibition at 10 µM,[5],44.9%
same,IC50,[5],163 nM
same,inhibition at 10 µM,[6],44.5%
same,IC50,[6],6170 nM
same,inhibition at 10 µM,[7],23.4%
O=C(NCc1ccccc1-c1ccoc1)c1cc2scnc2[nH]1 [Compound I-27],inhibition at 10 µM,[1],68.8%
same,IC50,[1],0.012 nM
same,growth inhibitory activity on HL-60 (in words),[1],relatively good growth inhibitory activity
same,inhibition at 10 µM,[2],67.9%
same,inhibition at 10 µM,[3],1.7%
same,inhibition at 10 µM,[4],43.2%
same,IC50,[5],32 nM
same,growth inhibitory activity on LNCAP (in words),[5],relatively good growth inhibitory activity
same,inhibition at 10 µM,[6],44.9%
same,IC50,[6],6 nM
same,growth inhibitory activity on U2OS (in words),[6],relatively good growth inhibitory activity
same,inhibition at 10 µM,[7],55.1%
O=C(NCc1ccccc1-c1cc2ccccc2o1)c1cc2scnc2[nH]1 [Compound I-28],inhibition at 10 µM,[1],74.8%
same,IC50,[1],5 nM
same,growth inhibitory activity on HL-60 (in words),[1],relatively good growth inhibitory activity
same,inhibition at 10 µM,[2],50.3%
same,inhibition at 10 µM,[3],21%
same,inhibition at 10 µM,[4],44.4%
same,inhibition at 10 µM,[5],71%
same,IC50,[5],130 nM
same,growth inhibitory activity on LNCAP (in words),[5],relatively good growth inhibitory activity
same,inhibition at 10 µM,[6],48.7%
same,IC50,[6],928 nM
same,growth inhibitory activity on U2OS (in words),[6],relatively good growth inhibitory activity
same,inhibition at 10 µM,[7],60.3%
CSc1ccc(OCc2cccc(NC(=O)c3cc4scnc4[nH]3)c2)cc1 [Compound I-31],inhibition at 10 µM,[1],71.8%
same,IC50,[1],491 nM
same,inhibition at 10 µM,[2],< 0%
same,inhibition at 10 µM,[3],13.9%
same,inhibition at 10 µM,[4],18.5%
same,inhibition at 10 µM,[5],59.3%
same,IC50,[5],2600 nM
same,inhibition at 10 µM,[6],54.9%
same,IC50,[6],8920 nM
same,inhibition at 10 µM,[7],20.4%
CS(=O)(=O)c1ccc(OCc2cccc(NC(=O)c3cc4scnc4[nH]3)c2)cc1 [Compound I-32],inhibition at 10 µM,[1],70.3%
same,IC50,[1],1850 nM
same,inhibition at 10 µM,[2],< 0%
same,inhibition at 10 µM,[3],< 0%
same,inhibition at 10 µM,[4],< 0%
same,inhibition at 10 µM,[5],41.5%
same,IC50,[5],7030 nM
same,inhibition at 10 µM,[6],45.2%
same,IC50,[6],5470 nM
same,inhibition at 10 µM,[7],9.2%
Cc1cn(-c2cc(NC(=O)c3cc4scnc4[nH]3)cc(C(F)(F)F)c2)cn1 [Compound I-35],inhibition at 10 µM,[1],80.4%
same,IC50,[1],7030 nM
same,inhibition at 10 µM,[2],59.5%
same,inhibition at 10 µM,[3],< 0%
same,inhibition at 10 µM,[4],50.5%
same,inhibition at 10 µM,[5],61.9%
same,IC50,[5],4740 nM
same,inhibition at 10 µM,[6],42.2%
same,IC50,[6],7850 nM
same,inhibition at 10 µM,[7],44.4%
